Legend:
[1] = tested on: HTG21 (DNA, G4) GGGTTAGGGTTAGGGTTAGGG; test: luminescence titration, Scatchard; conditions: 100 mM KCl; 10 mM Tris-HCl, pH 7.4, 20 °C; 4 µM Ru; DNA concentration in base pairs
[2] = tested on: F21T (DNA, G4) GGGTTAGGGTTAGGGTTAGGG; test: FRET melting; conditions: 60 mM KCl; 10 mM Tris-HCl, pH 7.4; 1 µM DNA, [Ru]:[DNA] = 2:1
[3] = tested on: ds26 (DNA, duplex) CAATCGGATCGAATTCGATCCGATTG; test: emission spectroscopy; conditions: 100 mM KCl; 10 mM Tris-HCl, pH 7.4; 4 µM Ru, 8 µM DNA
[4] = tested on: HTG21 (DNA, G4) GGGTTAGGGTTAGGGTTAGGG; test: absorption titration; conditions: 100 mM NaCl; 10 mM Tris-HCl, 25 °C

SMILES | Kb [1] [M⁻¹] | ΔTm [2] [°C] | binding [3] | Kb [4] [M⁻¹]
Oc1ccc(-c2nc3c4cccnc4c4ncccc4c3[nH]2)cc1.[Ru+2].c1cnc2c(c1)ccc1cccnc12.c1cnc2c(c1)ccc1cccnc12 [Λ-Ru] | 930000 | 22.7 | weak | 8.9e+06
Oc1ccc(-c2nc3c4cccnc4c4ncccc4c3[nH]2)cc1.[Ru+2].c1cnc2c(c1)ccc1cccnc12.c1cnc2c(c1)ccc1cccnc12 [Δ-Ru] | 720000 | 15.0 | weak | 8.3e+06
Oc1ccc(-c2nc3c4cccnc4c4ncccc4c3[nH]2)cc1.[Ru+2].c1cnc2c(c1)ccc1cccnc12.c1cnc2c(c1)ccc1cccnc12 [Λ/Δ-Ru] | 910000 | 18.4 | weak | 
